Where two headings read alike, the source gives them in different places.
Legend:
[1] = target: T1, 60 DUBs in HEK293AD lysate (Homo sapiens, UniProt Q93009); experiment: In situ DUB profiling: competitive ABPP with Bio-Ub-PA/Bio-Ub-VME and quantitative MS; assay type: binding; conditions: HEK293 crude cell extract, 5 hours pre-incubation
T1 construct: endogenous in cells; host or cells: HEK 293AD lysate
Procedure: (§1) DUB profiling was performed using conditions similar to those in Lawson et al[63]. HEK 293AD cells were lysed using target engagement lysis buffer (50 mM Tris pH 8.0, 150 mM NaCl, 5 mM MgCl2, 0.5 mM EDTA, 0.5% NP-40, 10% glycerol, 1 mM TCEP, protease and phosphatase inhibitors), and the lysate was cleared by centrifugation. Samples were diluted to 2 mg/mL, and 1 mL lysate was incubated with the indicated concentration of XL177A for 5 hours at RT. Excess inhibitor was removed using a 30 K Amicon spin filter, then the resulting lysate was incubated with 1 μM each of Biotin-Ub-PA and Biotin-Ub-VME for 90 minutes at RT. SDS was added to a final concentration of 1.2%, and samples were heated to 80 °C for 5 minutes. After cooling to RT, 1X PBS was added to dilute the final SDS concentration to 0.2%. 100 μL streptavidin agarose slurry was added to each sample, followed by incubation at RT for 3 hours. After streptavidin enrichment, samples were washed vigorously (2×0.2% SDS, 3x PBS, 3x ddH2O). […]
(§2) To remove rapigest, recovered supernatants were acidified with 10% TFA, incubated at 37 °C for 45 minutes, and centrifuged at 14,000 rpm for 15 minutes at 4 °C. […] Eluted peptides were then analyzed by nanoflow LC-MS/MS as described[64] with a NanoAcquity UPLC system (Waters, Milford, MA) interfaced to a QExactive HF mass spectrometer (Thermofisher Scientific, San Jose, CA). […]

[2] = tested on: 60 DUBs in HEK293AD lysate; experiment: as above; assay type: binding, human; conditions: in vitro and activity-based proteomic profiling
Procedure: as §1, §2

TC32 cells = experiment: Cell viability (CellTiter-Glo) in TC32 cells expressing sgRNA (TP53-KO vs control); assay type: cell-based; conditions: 3 days
Procedure: Cells were plated in 384-well culture-treated plates and allowed to settle overnight. After drug treament and appropriate incubation time, cell viability was assessed using the CellTiter-Glo Luminescent Cell Viability Assay (Promega). Luminescence was read on a Fluostar Omega Reader (BMG Labtech).

USP7 = USP7 (Homo sapiens, UniProt Q93009); experiment: Competitive ABPP with HA-Ub-VS in MCF7 crude cell extracts; assay type: binding; parameters: endogenous in cells; host or cells: MCF7; conditions: read-out: IC50 of inhibition of HA-Ub-VS labeling
Procedure: HA-Ub-VS experiments were performed as previously described in Lamberto et al[29]. Briefly, target engagement lysis buffer (50 mM Tris pH 8.0, 150 mM NaCl, 5 mM MgCl2, 0.5 mM EDTA, 0.5% NP-40, 10% glycerol, 1 mM TCEP, protease and phosphatase inhibitors) was added to cell pellets on ice. Lysate was cleared by centrifugation and diluted to 1.67 mg/mL. Where indicated, 30 μL lysate was then incubated with inhibitors or DMSO for the indicated timepoints. 1 μM HA-Ub-VS was then added to the lysate and incubated at RT for the indicated time points. Labeling reactions were quenched with 4x LDS sample buffer (Thermo Fisher B0007) supplemented with 10% BME, vortexed vigorously, and heated to 95 C for 5 minutes. Samples were resolved by SDS-PAGE and analyzed by Western blot with the indicated antibodies.

USP7 catalytic domain = target: T2, USP7 catalytic domain (Homo sapiens, UniProt Q93009); experiment: Intact MS / CE-MS labeling of purified USP7 catalytic domain; assay type: binding; conditions: 2.5-fold molar excess compound
T2 construct: catalytic domain (208–560) used were cloned as described; inferred from Ni-NTA purification; made in house; host or cells: E. coli BL21 (DE3)
Procedure: Purified USP7 catalytic domain was diluted to 20 μM in 10 μL labeling buffer (20 mM HEPES pH 7.5, 150 mM NaCl, 1 mM TCEP) and incubated for the indicated times with 50 μM (2.5×) compound. After incubation, samples were flash frozen in liquid nitrogen and stored at −80 °C until analysis.
Intact mass analysis was performed by injecting 5 µg USP7 catalytic domain onto a self-packed reversed phase column (1/32” O.D. × 500 um I.D., 5 cm of POROS 10R2 resin). After desalting, protein was eluted with an HPLC gradient (0–100% B in 4 minutes, A = 0.2 M acetic acid in water, B = 0.2 M acetic acid in acetonitrile, flow rate ~30 µL/min) into an LTQ ion trap mass spectrometer (ThermoFisher Scientific, San Jose, CA). Mass spectra were processed using MagTran1.03b2[52].
Peptides were desalted using SP3[53], dried by vacuum centrifugation, and reconstituted in 1% formic acid/50% acetonitrile with 100 mM ammonium acetate. Peptides were then analyzed by CE-MS using a ZipChip CE system and autosampler (908 Devices, Boston, MA) interfaced to a QExactive HF mass spectrometer (ThermoFisher Scientific, San Jose, CA). Peptide solution was loaded for 30 seconds, and the mass spectrometer was operated in data dependent mode and subjected the 5 most abundant ions in each MS scan (60k resolution, 3E6 target, lock mass enabled) to MS/MS (15k resolution, 1E5 target, 100 ms max inject time). […]

USP7, sequence (Q93009 whole entry): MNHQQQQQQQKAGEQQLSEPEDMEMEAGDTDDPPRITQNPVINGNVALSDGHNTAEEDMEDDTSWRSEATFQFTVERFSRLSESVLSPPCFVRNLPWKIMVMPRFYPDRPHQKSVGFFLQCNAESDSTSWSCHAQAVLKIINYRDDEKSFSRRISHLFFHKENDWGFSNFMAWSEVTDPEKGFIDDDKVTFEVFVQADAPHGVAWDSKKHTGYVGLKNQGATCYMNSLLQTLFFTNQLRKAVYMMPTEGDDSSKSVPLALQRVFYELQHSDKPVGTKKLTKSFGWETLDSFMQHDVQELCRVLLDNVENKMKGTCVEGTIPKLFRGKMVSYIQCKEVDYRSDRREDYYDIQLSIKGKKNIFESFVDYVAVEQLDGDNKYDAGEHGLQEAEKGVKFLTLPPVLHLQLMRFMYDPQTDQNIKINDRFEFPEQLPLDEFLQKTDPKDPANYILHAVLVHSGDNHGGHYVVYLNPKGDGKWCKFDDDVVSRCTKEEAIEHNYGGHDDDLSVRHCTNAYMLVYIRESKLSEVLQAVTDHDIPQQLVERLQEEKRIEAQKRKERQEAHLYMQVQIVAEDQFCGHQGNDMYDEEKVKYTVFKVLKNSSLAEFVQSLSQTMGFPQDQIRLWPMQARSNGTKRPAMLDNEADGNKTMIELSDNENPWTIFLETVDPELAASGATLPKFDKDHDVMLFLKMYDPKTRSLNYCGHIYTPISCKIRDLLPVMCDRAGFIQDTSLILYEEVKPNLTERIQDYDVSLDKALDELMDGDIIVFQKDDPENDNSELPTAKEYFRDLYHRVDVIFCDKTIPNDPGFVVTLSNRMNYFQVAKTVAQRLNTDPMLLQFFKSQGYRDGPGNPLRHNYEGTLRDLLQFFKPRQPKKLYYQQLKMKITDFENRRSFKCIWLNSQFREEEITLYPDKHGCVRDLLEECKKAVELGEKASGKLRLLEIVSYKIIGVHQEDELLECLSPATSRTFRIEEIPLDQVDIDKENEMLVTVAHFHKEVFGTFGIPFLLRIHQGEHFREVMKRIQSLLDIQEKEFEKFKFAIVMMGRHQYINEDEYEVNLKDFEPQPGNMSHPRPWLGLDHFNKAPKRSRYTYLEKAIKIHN
T2 sequence (Q93009 208-560): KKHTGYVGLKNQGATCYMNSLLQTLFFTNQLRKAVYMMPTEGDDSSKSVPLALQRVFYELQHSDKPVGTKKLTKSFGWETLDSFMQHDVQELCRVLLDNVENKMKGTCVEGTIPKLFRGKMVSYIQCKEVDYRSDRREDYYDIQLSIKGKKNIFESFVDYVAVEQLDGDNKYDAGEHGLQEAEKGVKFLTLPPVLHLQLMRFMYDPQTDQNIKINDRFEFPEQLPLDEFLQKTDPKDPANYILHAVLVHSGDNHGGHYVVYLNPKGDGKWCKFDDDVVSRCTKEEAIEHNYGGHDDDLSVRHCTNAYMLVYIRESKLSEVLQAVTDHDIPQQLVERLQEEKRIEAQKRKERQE
T1 sequence (Q93009 whole entry): as the sequence (Q93009 whole entry) above

## CN1CCN(CCC(=O)Nc2ccc3c(=O)n(CC4(O)CCN(C(=O)[C@@H](CCCNC(=O)c5ccc6c(Cl)c7c(nc6c5)CCCC7)Cc5ccccc5)CC4)cnc3c2)CC1 [XL177A]
[1]
  USP7 labeling by DUB ABPs: significantly blocked USP7 labeling
[2]
  selectivity for USP7 over closely related DUBs: > 10 fold
TC32 cells
  effect of TP53 KO on growth suppression: completely rescued TC32 growth except at high doses
USP7; 30 min preincubation
  IC50: 85 nM
USP7; 4 hr preincubation
  IC50: 8 nM
USP7 catalytic domain
  labeling of USP7 catalytic domain by MS: Quantitative labeling

Reference: PMC7093416, “Selective USP7 inhibition elicits cancer cell killing through a p53-dependent mechanism” (Scientific Reports, 2020)
